Experiment: Human HepG2 cell viability assay in 384 well format
Assay type: toxicity, cell-based
Set-up: dose 125 nL, time 70.5 hour; cytotoxicity at 70.5 h: concentration not given beside the values
Settings: HepG2 cells, read-out: Inhibition

| SMILES | cytotoxicity at 70.5 h [%] |
| --- | --- |
| CC(C)c1ncc(CN2C[C@@H](CN3CCCCC3)[C@@H](CO)C2)cn1 | -2.58 |
| O=C(C1CCOCC1)N1CCOC(CC2CCCCC2)C1 (stereo not drawn) | -8.55 |
| O=C(N1CCCC1)N1C[C@H]2CC[C@@H]1CN(Cc1ccncc1)C2 | 17.1 |
| CCC[C@H]1CN(Cc2ccc(N(C)C)nc2)C[C@@H]1NC(=O)CO | -6.62 |
| c1ccc(-c2nc3c(c(NCCn4cccc4)n2)CCNCC3)nc1 | -14.1 |
| CCCc1nc(C)cc(NCc2ccc(S(N)(=O)=O)cc2)n1 | -16.8 |
| COc1ncccc1CN1CC[C@@]2(O)CCN(C(=O)C3CCC3)C[C@H]2C1 | -5.11 |
| COc1ccccc1OCCCN1CCNC1=O | -8.47 |
| c1cnc(N2C[C@@H]3CC[C@H](C2)N(Cc2ccsc2)C3)nc1 | -9.26 |
| Cc1ccc(N2C[C@@H]3CN(C(=O)NC4CCCC4)C[C@]3(C(=O)O)C2)nn1 | 2.02 |
| C=C1C(C)(C)[C@H]2CC[C@]1(C(=O)N1CCC(n3cc(CCO)nn3)CC1)C2 | -10.3 |
| COc1ccccc1S(=O)(=O)N1CCC2(CC1)[C@H](O)C[C@@H]2O | -10.2 |
| O=C(c1ccc2c(c1)[nH]c(=O)n2[C@H]1CC[C@H](O)CC1)N1CCOCC1 | -12.1 |
| CN(Cc1cnc(N)nc1)C(=O)c1coc(COc2cccc(F)c2)n1 | 0.199 |
| Cc1n[nH]c(C)c1CCc1n[nH]c(=O)n1Cc1cccs1 | -0.375 |
| Cc1cc(C)n(CC(C)Nc2nc(-c3ccncc3)nc3c2CNC3)n1 (stereo not drawn) | 17.3 |
| CCN1CCN(C[C@@H]2CN(c3ncc(Cl)cc3F)C[C@@H]2CO)CC1 | -10.9 |
| CSCC[C@H](N)C(=O)NCc1cc2n(n1)CCCN(C(=O)N(C)C)C2 | -8.91 |
| NC1CCCCN(Cc2cc(C3CCCCC3)no2)C1 (stereo not drawn) | -7.91 |
| Cc1ccc(NC(=O)CN[C@H](C(N)=O)C(C)C)cc1F | 13.9 |
| Cc1cc(C)cc(CN2CCN(Cc3cc(C#N)n(C)c3)CC2=O)c1 | -6.92 |
| CS(=O)(=O)c1ccc(-c2cc(C3CC3)c(C#N)c(N)n2)cc1 | 0.0408 |
| CC(C)=CCN1CCN(Cc2cc(C)c(O)c(C)c2)CC1CCO (stereo not drawn) | 9.39 |
| O=C1CCC2(CCN(Cc3nccs3)CC2)CN1CCCO | -6.67 |
| COc1ccc(C(=O)N2CCC3(CC2)c2ccccc2[C@@H](N)[C@@H]3O)cc1 | 0.101 |
| Cc1nnsc1C(=O)N1CCN(C(=O)C2CCC2)[C@@H]2CS(=O)(=O)C[C@@H]21 | -10.8 |

| SMILES | cytotoxicity at 70.5 h [%] |
| --- | --- |
| O=c1cc(N2CCCC2)cnn1CC(F)F | -6.13 |
| Cn1ccnc1-c1cn(CCCc2nnc(N)s2)nn1 | -19.9 |
| CCC1CN(C(=O)c2cc(C(C)=O)c(C)[nH]c2=O)CCN1C(C)C (stereo not drawn) | -9.37 |
| O=C(NCCO)c1coc(CN2CCN(c3ccccc3F)CC2)n1 | -5.22 |
| COCCN1C(=O)[C@H]2CC[C@@H]1CN(Cc1nnc(C3CC3)o1)C2 | 19.1 |
| CCCc1ccc2oc(C(=O)N3CCCN(C)CC3)c(C)c2c1 | -2.52 |
| CCc1ncc2c(n1)CN(C(=O)c1c(C)[nH]c(C(C)=O)c1C)C2 | -9.15 |
| CCN1CCCC(C)(C(=O)NCc2nnnn2-c2ccccc2)C1 (stereo not drawn) | -5.49 |
| COc1ccc2c(c1)C(C(=O)N(C)CCc1scnc1C)CC(=O)N2 (stereo not drawn) | -5.27 |
| CCCn1cc(C(=O)NCCC(=O)NC2CCCCC2)c(C)n1 | -4.38 |
| Cc1cc(C)c2nc(CN3CCC(C#N)CC3)cc(O)c2c1 | -1.43 |
| CN(C)S(=O)(=O)N1C[C@@H]2CC[C@H](C1)N(Cc1cccc(C#N)c1)C2 | -8.84 |
| CN(Cc1ccoc1)C(=O)Cn1ncc(N(C)C)cc1=O | 9.67 |
| Cc1nn(CC(=O)NCCc2ccncc2)c(=O)n1Cc1ccccc1 | 1.25 |
| CN(Cc1nc(CC2CC2)no1)CC1COc2ccccc2O1 (stereo not drawn) | -3.03 |
| CC(C)n1ccnc1CN1C(=O)OC[C@@H]1c1ccccc1 | -2.47 |
| FC(F)(F)C1CN(Cc2cnc3c(-c4ccccc4)cnn3c2)CCO1 (stereo not drawn) | -7.58 |
| CN(C)c1nc2c(c(N3CCCC3)n1)CCN(C(=O)c1ccc[nH]1)CC2 | 25.5 |
| CCn1ccnc1CN(C)Cc1nc(Cc2cccc(F)c2)no1 | 11.1 |
| CCCNC(=O)N1CCCC2(CCC(=O)N(CCc3c[nH]cn3)C2)C1 (stereo not drawn) | -1.2 |
| CCC(CO)N(Cc1ccco1)C(=O)c1ccccc1SC (stereo not drawn) | 10.8 |
| Cc1nc2c(c(N3CCCOCC3)n1)CCN(C(=O)N1CCCC1)CC2 | -4.22 |
| CC(=O)c1ccc(CN2CC(Oc3ccccc3C)C2)cc1 | -1.63 |
| CNC(=O)c1cc(NC(=O)NCC2CCS(=O)(=O)C2)ccc1OC (stereo not drawn) | 19.9 |
| Cn1ncc2c(N3CC(N4CCCCC4)C3)nc(C3CCCC3)nc21 | -4.55 |
| COCCC(=O)N1CCC2(CCCN(Cc3cc(OC)ccc3F)C2)C1 (stereo not drawn) | -6.14 |

| SMILES | cytotoxicity at 70.5 h [%] |
| --- | --- |
| O=C(c1ccc(S(=O)(=O)NCc2ccncc2)cc1)N1CCNCC1 | -6.98 |
| CC(C)(O)C1CCCN(C(=O)Nc2nc(-c3ccccc3)ns2)C1 (stereo not drawn) | -3.5 |
| CC1=NC2(CCN(CC(C)c3ccccc3)CC2)C(=O)N1 (stereo not drawn) | -8.98 |
| CC(=O)c1ccc(-c2cnn(CC(=O)Nc3cc(C)nn3C)c2)nc1 | -13 |
| CCCc1nc(N2CCCC(CCOC)C2)c2cnn(C)c2n1 (stereo not drawn) | 15.9 |
| CNC(=O)[C@@H]1C[C@@H](N)CN1Cc1cc2cc(C)cc(C)c2[nH]c1=O | -12 |
| C[C@@H]1CN(C(=O)CCc2cnn(C)c2)C[C@@]1(O)C1CCC1 | -5.7 |
| CC(C)c1cc(N2CCC(N(C)C)C2)n2nccc2n1 (stereo not drawn) | -8.85 |
| CCC(CO)N(Cc1cccnc1)C(=O)c1ccncc1F (stereo not drawn) | -9.31 |
| COc1ccc(CN2CC(=O)N(c3ccc(C)cc3)CC2C)cc1O (stereo not drawn) | -2.16 |
| Cc1ccc(-c2cc(C(=O)NCCCc3csc(N)n3)[nH]n2)s1 | -3.12 |
| CS(=O)(=O)NC1CCN(C(=O)c2cnc(-c3cccnc3)nc2)CC1 | -7.35 |
| COc1cccc(-c2cc(NCCN(C)C)nc3[nH]ccc23)n1 | -6.53 |
| CSCC(=O)N1CCc2c(cnc(C)c2-c2noc(-c3ccco3)n2)C1 | -17 |
| O=C(c1ccc(=O)[nH]c1)N1CCCC1c1nc2cc(F)ccc2[nH]1 (stereo not drawn) | -3.97 |
| O=C(c1coc2ccccc12)N1CCCC(O)(CO)CC1 (stereo not drawn) | -7.66 |
| COc1c(C)cnc(CN(C)C(=O)c2ccc(C3CCCO3)s2)c1C (stereo not drawn) | -6.12 |
| Cn1ccnc1SCCNc1cc(N2CCOCC2)ncn1 | -19.6 |
| Cc1cccc(N2CCC(N3CCC4(CCCNC4=O)C3)CC2)c1C (stereo not drawn) | 10.3 |
| COCCC(=O)N1CCC2(CC1)CC(c1ccccc1)CN(C1CC1)C2 (stereo not drawn) | 0.742 |
| Cc1noc(C)c1CN1CCn2nc(CCC(=O)N3CCCC3)cc2C1 | -2.3 |
| Cc1cc(N2CCCC3(CN(C)C(=O)O3)C2)c2cc3c(cc2n1)OCO3 (stereo not drawn) | 19.1 |
| CCCn1c(C)c(CC(=O)NCCOC)c2c1CC(C)(C)CC2=O | -0.0334 |
| CCC(CO)N(Cc1cccs1)C(=O)CNS(=O)(=O)c1cccs1 (stereo not drawn) | -4.61 |
| CCN1CC(C(=O)N2CCN(CCn3cccc3)CC2)CC1=O (stereo not drawn) | 18.1 |
| CC[C@H]1CN(C(=O)c2cccc(-n3cnnc3)n2)CC[C@@]1(C)O | 19.7 |

— ChEMBL document CHEMBL3507680, “University of Dundee, Gates Library screen for HepG2 cell viability”
